This experiment can be described thus: Dose–response curve of purified […]s with isoleucine. The note with it: for fluorescence response of GECFINDER, AVE of 3 repeats: Supplementary Fig. 3 g. It counts as biochemical. The arrangement: key to Dose-response, AVE of Repeat 1-3 (Fig. 3 i): normalized ΔF/F0 (fluorescence change over baseline). Here is the method:
Fig. 3 Dose–response curves and fluorescence spectrums of […]s. a, c, e, g, i, k Dose–response curve of purified […]s with increasing concentrations of ligand in 100 mM Tris-HCl buffer (pH=7.5). The normalized ΔF/F0 value increased after ligand binding. All data shown are mean ± S.D. (n = 3 biologically independent samples). b, d, f, h, j, l The fluorescence spectra of […]s changed as the ligand concentration increased. All data shown are mean ± S.D. (n = 3 biologically independent samples). Source data are provided as a Source data file.
The study conducted dose–response curve, substrate specificity, and fluorescent spectrum analyses in 100-mM Tris buffer (pH = 7.5), while pH stability experiments were performed in 100-mM Tris buffer at three different pH values (6.5, 7.5, and 8.5) at room temperature. […] protein at a concentration of 0.75 μM, various small molecule concentrations, 1 mM ATP, and 2.5 mM MgCl2 were used in the experiments. Fluorescent signals were detected using a Microplate Reader (Synergy H4, Bio Tek) at an excitation/emission wavelength of 460 nm/510 nm or 480 nm/510 nm. The dose-response curve was determined immediately after the addition of the analyte. The total duration of the measurement was 15 min, with readings taken at one-minute intervals. The dose-response curve was plotted using the fluorescence values obtained after achieving stability in the fluorescence signal. The dose-response curves were fitted using the logistic model LOGISTIC5 available in Origin 2021, which could provide a more adequate fit to asymmetric dose-response data[62],[63]. Excitation spectra were scanned from 300 to 540 nm with a step size of 5 nm, and the emission wavelength was set to 560 nm. Emission spectra were scanned from 470 to 700 nm with a step size of 5 nm, and the excitation wavelength was set to 450 nm. The thermal stability of […] was analyzed using the UNcle multifunctional protein stability analysis system. Measurements were performed in 20 mM MOPS buffer with 2 mM DTT at a sample concentration of 1 mg/mL. Absolute fluorescence quantum yields were measured using an absolute photoluminescence quantum yield spectrometer (FS5, Edinburgh). […]
Ile (μM) Wave le ngth( nm ) Ile (μM) Wave le ngth( nm )
Supplementary Fig. 2 Dose–response curves and fl uorescen ce spectr ums of GEC FINDERs. a and c, Dose– re spons e curves of puri fi ed GECF INDE R-P he1 and 2 with increas ing concen tra tions of phenylalanine (1 nM to 100 μM). The norm alized ΔF/F 0 value increas ed aft er phenylalanine binding (4 60 nm excita tion) . b and d, The fl uore scen ce spect ra of GECF IN DER-P he1 and 2 changed as the phe nylalanine concen tra tion incre ased fro m 1 nM to 100 μM. e and g, Dose–re spon se curv es of puri fied GECF IN DER-Il e1 and 2 with increas ing concen tra tio ns of isoleucine (50 nM to 10 mM). The norm alized ΔF/F 0 value increas ed aft er isoleucine binding (4 80 nm excita tion) . f and h, The fl uore scen ce spect ra of GECF INDE R-Il e1 and 2 change d as the isoleucine concen tration increas ed fro m 0.5 μM to 10 mM. i, Dose–re spon se curv e of puri fi ed GECF INDE R-H is1 with increas ing concen tra tio ns of histid ine (5 nM to 1 mM). The Norm alized ΔF/F 0 increas ed aft er histidine binding (480 nm excita tion). j, The fl uore scen ce spect ra of GECFIN DER-H is1 changed as the histid ine concen tra tion increas ed fro m 5 nM to 1 mM. k, Diffe re nce in fl uore scen ce intensity of GECF INDE R-b enzoic aci d in the pre sence of 10 µM benzoic aci d compare d to the cont ro l (0 µM benzoic aci d). […] (n=3 biological ly independent samples). *p ≤ 0.05, ***p ≤ 0.001, ****p ≤ 0.0001, and n.s. indicat ed no signifi can t diffe re nce (S tude nt’s two-t aile d t-t est). Source data are provi ded as a Source Data file . […]

The structures appear in SMILES notation.

For `CC[C@H](C)[C@H](N)C(=O)O` [Ile], the “Dose-response, AVE of Repeat 1-3 (Fig. 3 i)” value was 0 (Ile 0.05 μM); 0.02113 (Ile 0.1 μM); 0.03402 (Ile 0.5 μM); 0.05594 (Ile 5 μM); 0.1628 (Ile 50 μM); 0.2049 (Ile 100 μM). Also, the “Dose-response, AVE of Repeat 1-3 (Fig. 3 i)” value came out at 0.2905 (Ile 250 μM); 0.3097 (Ile 500 μM); 0.3698 (Ile 1000 μM); 0.4681 (Ile 5000 μM); 0.4489 (Ile 7500 μM); 0.4411 (Ile 10000 μM). Moreover, the “fluorescence response of GECFINDER, AVE of 3 repeats” value is given as -6.245e-17 (Ile 0.05 μM); 0.01149 (Ile 0.1 μM); 0.02425 (Ile 0.5 μM); 0.01608 (Ile 5 μM); 0.05759 (Ile 50 μM); 0.08825 (Ile 100 μM). Also, the “fluorescence response of GECFINDER, AVE of 3 repeats” value is, setting by setting: (Ile 250 μM) 0.1283; (Ile 500 μM) 0.1586; (Ile 1000 μM) 0.1861; (Ile 5000 μM) 0.2413; (Ile 7500 μM) 0.2222; (Ile 10000 μM) 0.2208.

These data come from PMC10590383, “Repurposing conformational changes in ANL superfamily enzymes to rapidly generate biosensors for organic and amino acids” (Nature Communications, 2023).
